# Measured values from publication PMC6337391 (Molecules, 2019).
# Tests used:
# [1] = Reducing activity with the stable radical DPPH
# Experimental: The chalcones were studied for the antioxidant activity (reducing activity RA%) by the use of the stable free radical 2,2-diphenyl-1-picrylhydrazyl radical (DPPH) at concentrations 0.05 mM after 20 and 60 min (Table 2). In this procedure, the dominant chemical reaction involved is the reduction of the DPPH radical by single electron transfer from the antioxidant. […] For the sake of comparison, we measured the RA% values for the intermediate double ethers d which were included in the Table 2.
# To a solution of DPPH (final concentration 0.05 mM) in absolute ethanol an equal volume of the compounds solution in DMSO (stock solution 10 mM) dissolved in ethanol was added. Absolute ethanol was used as a control. The concentrations of the solutions of the compounds were 0.05 and 0.1 mM. The absorbance was recorded at 517 nm at room temperature after 20 and 60 min [29] (Table 2).
# [2] = ABTS•+ decolorization assay
# Experimental: The decolorization assay is used to evaluate the antioxidant activity. The ABTS^•+ cationic radical is derived from the direct oxidation of ABTS by potassium persulfate. No involvement of an intermediary radical is observed. The addition of electron-donating antioxidants reduce ABTS^•+.
# Stock solutions of the tested compounds in DMSO (10 mM) were diluted. […] aliquots of each sample were added into the ABTS·^+ solution and the absorbance was recorded at room temperature. Trolox was used as a standard.
# [3] = Inhibition of linoleic acid lipid peroxidation (AAPH)
# Source text: The water soluble 2,2′-azobis(2-amidinopropane) hydrochloride (AAPH) generates in vitro free radicals through spontaneous thermal decomposition. […] Overall, chalcones a, b, and c present anti-lipid peroxidation activity. […] The inhibiting activities for the rest b chalcones ranged from 15–44%. The intermediate ethers are moderate inhibitors. […] This might be correlated with the presence of the double C=C–COCH3 group. […] Both have a long ether chain in their structure.
# In an aqueous solution spectrophotometrically at 234 nm the production of conjugated diene hydro peroxide by oxidation of sodium linoleate was monitored and recorded according to our previous published experimental conditions, using 10 µL of the 16 mM sodium linoleate solution added to the UV cuvette containing 930 μL of 0.05 M phosphate buffer, pH 7.4 pre-thermostated at 37 °C, under air by the addition of 50 μL of 40 mM AAPH solution, which was used as a free radical initiator. Ten microliters (10 μL) of the appropriate solutions of the tested compounds were added in the mixture, whereas same level of DMSO was used as a blank for the measurement of lipid oxidation. The rate of oxidation at 37 °C was monitored by recording the increase in absorption at 234 nm caused by conjugated diene hydro peroxides.
# [4] = molecular target: T1, soybean lipoxygenase (Glycine max, UniProt P08170); assay: biochemical; assay type: biochemical; conditions: soybean LOX
# T1 sequence (P08170 1-839): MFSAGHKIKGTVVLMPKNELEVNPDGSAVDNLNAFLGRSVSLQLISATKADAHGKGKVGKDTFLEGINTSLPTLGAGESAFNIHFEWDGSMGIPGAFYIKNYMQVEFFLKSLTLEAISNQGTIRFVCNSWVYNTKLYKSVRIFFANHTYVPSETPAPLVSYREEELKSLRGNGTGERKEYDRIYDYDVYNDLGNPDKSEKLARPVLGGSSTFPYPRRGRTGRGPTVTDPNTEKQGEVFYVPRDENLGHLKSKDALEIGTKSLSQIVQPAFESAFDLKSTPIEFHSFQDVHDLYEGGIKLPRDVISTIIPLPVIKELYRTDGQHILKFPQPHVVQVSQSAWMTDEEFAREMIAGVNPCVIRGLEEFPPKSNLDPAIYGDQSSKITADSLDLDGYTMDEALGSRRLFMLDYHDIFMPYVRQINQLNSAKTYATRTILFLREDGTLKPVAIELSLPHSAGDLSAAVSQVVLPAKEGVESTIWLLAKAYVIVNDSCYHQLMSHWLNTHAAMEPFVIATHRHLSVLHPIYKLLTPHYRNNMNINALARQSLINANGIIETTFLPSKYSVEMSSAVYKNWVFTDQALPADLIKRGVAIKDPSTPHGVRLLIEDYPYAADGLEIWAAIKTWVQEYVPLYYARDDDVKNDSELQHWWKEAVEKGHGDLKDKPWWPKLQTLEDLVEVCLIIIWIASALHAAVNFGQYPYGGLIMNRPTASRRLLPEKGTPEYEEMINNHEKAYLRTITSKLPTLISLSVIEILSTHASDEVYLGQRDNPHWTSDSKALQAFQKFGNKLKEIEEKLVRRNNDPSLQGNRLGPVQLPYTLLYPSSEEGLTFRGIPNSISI
# Source text: In our experiments we used soybean lipoxygenase. Designing agents to modulate activities of the variety of so closely homologous enzymes, such as different LOXs, require an intimate knowledge of their 3D structures, as well as information about metabolism of the potential xenobiotics. […] Due to lack of sufficiently-purified human enzymes most of the research has been done on soybean LOX [52, 53]. Although this enzyme is not identical to the mammalian one, it seems that there is a sufficient qualitative correlation between values for enzyme inhibition with the two enzymes.
# In vitro study was evaluated as reported previously. The tested compounds as stock solutions were dissolved in DMSO. Ten microliters (10 μL) were incubated at room temperature with sodium linoleate ([…]) and 0.2 mL of enzyme solution (1/9 × 10^−4 w/v in saline) in buffer pH 9 (tris) at room temperature (final volume 1 mL). […] Several concentrations were used for the determination of IC50 values.
# [5] = Lipophilicity as RM values by RP-TLC; assay type: physicochemical; design: key: RM = log[(1/Rf) − 1]; conditions: methanol/water 70/30, SD < 10%
# Source text: It is well-documented and discussed in the literature that lipophilicity is a very significant physicochemical property which may critically affect distribution, bioavailability, metabolic activity and elimination, all the useful characteristics for the kinetics of biologically active compounds. Thus, we attempted to determine experimentally the lipophilicity of the synthesized compounds from the RPTLC method as RM values. The method is considered to be a reliable, fast and convenient method for expressing lipophilicity. Moreover, many calculated methods were used in order to predict the logP value.
# Reversed phase TLC (RP-TLC) was performed on silica gel plates impregnated with 5% (v/v) liquid paraffin in light petroleum ether. The mobile phase was a methanol/water mixture (70/30, v/v). The plates were developed in closed chromatography tanks saturated with the mobile phase at 24 °C. Spots were detected under UV light. Five individual measurements of Rf values were recorded and used for the determination of RM using the equation RM = log [(1/Rf) − 1]. (Table 3).
# [6] = system: L929 mouse fibroblasts cells; assay: Cytotoxicity, propidium iodide fluorescence method; assay type: cell-based; conditions: 24-h incubation
# Experimental: The cytotoxicity of the synthesized derivatives against L929 mouse fibroblasts cells was determined using the propidium iodide (PI) fluorescence method in the presence of different concentrations (1–100 μM) of these compounds. The results are presented in Table 4 in the form of the % cell survival values as PI% for the examined compounds. […] Chalcones c7, c8, c11, and c12 follow.
# L929 mouse fibroblasts cells were cultured in EMEM supplemented with 10% horse serum, 2 mM L-glutamine, 1 mM sodium pyruvate, 0.1 mM nonessential amino acids, 1.5 g/L sodium bicarbonate, and 100 μg/mL penicillin–streptomycin at 37 °C in a humidified atmosphere with 5% CO2. L929 cells were plated into 24-well plates at a density […] and allowed to attach and grow for 24 h. The supernatant in each well then replaced with medium containing various concentrations (1, 10, 20, 50 and 100 μM) of compounds a5–12, c5–12, di, and dii–dvi, which presented the more interesting results in the in vitro experiments. After 24-h incubation, the supernatant was removed and the cells were washed with PBS. The cells were detached with 0.25% trypsin, transferred to FACS tubes, and then centrifuged (1600 rpm for 5 min) and the pellet washed with PBS. After washing, the cells in the pellet were incubated with 5 μL propidium iodide (PI) solution (1 mg/mL) for 1 min. The PI fluorescence (cell death) was determined with flow cytometry, FACS Calibur, Coulter Epics XL-MCL (Beckman, Inc., Mount Holly, NJ, USA). The analysis of flow cytometry data was performed with the WinMDI analysis program (Table 4).
Compound,RA% 100 μM 20 min [1],RA% 100 μM 60 min [1],ABTS•+ Inhb. % @ 100 μM [2],AAPH% @ 100 μM (anti-lipid peroxidation) [3],% LOX Inhb. @ 100 μM [4],RM [5],IC50 ([4]; read-out: LOX IC50),1 μM Average (% pi) ± σ [6],10 μM Average (% pi) ± σ [6],20 μM Average (% pi) ± σ [6],50 μM Average (% pi) ± σ [6],100 μM Average (% pi) ± σ [6]
"CC(Cc1ccc(O)c(O)c1)C(C)Cc1ccc(O)c(O)c1 (stereo not drawn) [NDGA, Nordihydroguaiaretic acid, reference compound]",81%,83%,,,,,,,,,,
"Nc1c2c(nc3ccccc13)CCCC2 [Tacrine, reference compound]",,,88%,,,,,,,,,
"O=C(/C=C/c1ccccc1)c1ccc(O)cc1 [a13, (E)-1-(4-hydroxyphenyl)-3-phenylprop-2-en-1-one]",7%,3%,No,38%,23%,−0.73,,,,,,
"O=C(/C=C/c1ccc(OCc2ccc(Br)cc2)cc1)c1ccccc1O [b1, (E)-3-(4-((4-bromobenzyl)oxy)phenyl)-1-(2-hydroxyphenyl) prop-2-en-1-one]",46%,0%,40%,89%,89%,−0.91,56 µM,,,,,
"O=C(/C=C/c1cccc(Oc2ccccc2)c1)c1ccccc1O [b2, (E)-1-(2-hydroxyphenyl)-3-(3-phenoxyphenyl) prop-2-en-1-one]",45%,15%,No,44%,44%,0.04,,,,,,
"CC(=O)c1ccc(OCCCCOc2ccc(C(C)=O)cc2)cc1 [diii, 1,1′-((butane-1,4-diylbis(oxy))bis(4,1-phenylene))diethanone]",,,No,29%,41%,−0.37,,14.06 ± 1.36%,20 ± 3.12%,20.76 ± 3.51%,32.14 ± 6.99%,32.14 ± 6.99%
"CC(=O)c1ccc(OCCCCCOc2ccc(C(C)=O)cc2)cc1 [div, 1,1′-((pentane-1,5-diylbis(oxy))bis(4,1-phenylene))diethanone]",,,No,30%,17%,0.23,,4.89 ± 0.51%,8.56 ± 3.97%,11.86 ± 2.98%,17.05 ± 1.46%,17.05 ±1.46%
"CC(=O)c1ccc(OCCCCCCOc2ccc(C(C)=O)cc2)cc1 [dv, 1,1′-((hexane-1,6-diylbis(oxy))bis(4,1-phenylene))diethanone]",,,No,18%,7%,−0.53,,4.47 ± 0.59%,6.83 ± 2.46%,8.05 ± 3.58%,9.69 ± 0.57%,9.69 ± 0.57%
"CC(=O)c1ccc(OCCCCCCCCOc2ccc(C(C)=O)cc2)cc1 [dvii, 1,1′-((octane-1,8-diylbis(oxy))bis-(4,1-phenylene))diethanone]",,,No,27%,5%,−0.36,,,,,,
"CN(C)c1ccc(/C=C/C=C/C(=O)c2ccc(OCCCCCCOc3ccc(C(=O)/C=C/C=C/c4ccc(N(C)C)cc4)cc3)cc2)cc1 [ev, (2E,2′E,4E,4′E)-1,1′-((hexane-1,6-diylbis(oxy))bis(4,1-phenylene))bis(5-(4-(dimethylamino)phenyl)penta-2,4-dien-1-one)]",No,no,25%,14%,7%,,,,,,,
"CN(C)c1ccc(/C=C/C=C/C(=O)c2ccc(OCCCCCCCCOc3ccc(C(=O)/C=C/C=C/c4ccc(N(C)C)cc4)cc3)cc2)cc1 [evii, (2E,2′E,4E,4′E)-1,1′-((octane-1,8-diylbis(oxy))bis(4,1-phenylene))bis(5-(4-(dimethylamino)phenyl)penta-2,4-dien-1-one)]",No,no,88%,6%,12%,,,,,,,
